# In patent US20240416143A1, “PHOTONIC ANTIMICROBIAL WOUND SURFACE DRESSING” (The General Hospital Corporation, priority 2021, published 2024):
# Read-outs that look alike come from different tables or passages of the source.
# What was measured:
# [1] = Solubility of menadione in aqueous solution; type: physicochemical
# Procedure: (§1) Thus, we dissolved the menadione in two conditions: in PBS containing either 1% DMSO or 1% DMSO/Tween80 at 400 μM. Tween 80 is a surfactant and the idea is to mix with the DMSO before to add to PBS is due to necessity to improve the solubility of menadione in aqueous solution. We measured the absorption spectrum in both conditions to analyze if there is any change in optical properties. The range of wavelength absorption of menadione was measured between 200-800 nm (see FIG. 12B) to choose the optimum wavelength of the light absorption spectra. […] The maximum wavelength of absorption found was 340 nm for both conditions. […] The molar absorptivity coefficient was compared in different wavelength according with the Table 1.
# [2] = system: P. aeruginosa biofilms in porcine explants; assay: Photoinactivation of biofilms in ex vivo porcine partial thickness wounds by menadione + aBL; type: cell-based, Pseudomonas aeruginosa
# Procedure: (§2) Skin was handled and sanitized with 70% isopropanol solution after hair shaving. The explants and inner wounds were created using a 12 mm and 4 mm biopsy punches respectively. The explants were placed in 12 wells plates using a (8 μm pore) inserts (Corning™ Falcon™). 1 mL of DMEM media was added to each well in the plate before the insert. After 24 hours, the inner wounds in the explants were inoculated with 20 μL of 10^8 CFU/mL of bacterial solution. After that, the explants were incubated at 37° C. and 5% CO2 for 48 hours to ensure the growth of a mature bacterial biofilm. The inner wounds of the explants were replenished daily with fresh BHI media to ensure that the wounds are hydrated.
# (§3) 48 hours following the inoculation, mature monobacterial biofilms of MRSA, P. aeruginosa, and E. coli were obtained with 8.00 log10 CFU/g per wound bed on each explant. MRSA biofilms in explant were reduced by 0.81 log10 CFU/g after the treatment of just aBL 250 J/cm^2 (50 mW/cm^2). However, MRSA biofilms in ex-vivo porcine skin were reduced by up to 4.18 log10 CFU/g when treated with aBL combined with menadione (200 μg/mL). For MRSA biofilms, the log reduction of mature monobacterial biofilm increased as the menadione concentration increased (see FIGS. 16A-16B). […]
# E. coli = assay: Photoinactivation of planktonic cultures by menadione + antimicrobial blue light; type: cell-based, Escherichia coli ATCC 25922; settings: menadione ⅛ MIC + aBL 90 J/cm^2 (50 mW/cm^2), 405 nm
# Procedure: (§4) The bacterial cells were grown in BHI broth medium shaken overnight. Cells were collected by centrifugation at 4,000 rpm for 5 minutes and suspended in PBS at a density of 10^8 colony-forming units (CFU)/mL (estimated by measuring the optical density at 600 nm; O.D 0.1=10^8 cells/mL). The microbial suspension in PBS was transferred to a 35×12-mm dish and mixed with different concentrations of menadione: 0, 0.5, 1 and 2 μg/mL for MRSA USA300, AF003 and IQ0064; 0, 1, 10 and 30 μg/mL for P. aeruginosa PA01; and 0, 16, 32, 64 and 128 μg/mL for E. coli ATCC 25922. After incubation in the dark at 25° C. for 1 hour, the planktonic suspension of cells at room temperature was irradiated using aBL (405 nm) at 50 mW/cm^2 with different radiant exposures (0-250 J/cm^2). During the aBL irradiation, 40 μL of samples were withdrawn every 15 minutes, and the CFUs were determined by 10-fold serial dilutions in PBS (10-1 to 10-7 dilution factors), plated on BHI agar plates as described previously [Ref. 17]. CFUs were counted after overnight incubation at 37° C. Experiments were performed in triplicate.
# [3] = UV-Vis absorption spectroscopy of menadione; type: physicochemical
# Procedure: Stock solutions of menadione (10 mg/mL) were prepared in DMSO only and in DMSO/Tween (1:1) to improve the solubility. Different concentrations of menadione were prepared to make a calibration curve by diluting the stock solution in PBS so that the final solution was either 1% DMSO or 1% DMSO/Tween. The absorbance spectra were measured using an Evolution™ 300 UV-Vis Spectrophotometer (Thermo Scientific, Waltham, Massachusetts, USA). The calibration curve was measured, and molar absorption coefficient calculated.
# as §1
# P. aeruginosa [4] = assay: Photoinactivation of planktonic cultures by menadione + antimicrobial blue light; type: cell-based, Pseudomonas aeruginosa PA01; settings: menadione ⅛ MIC + aBL 90 J/cm^2 (50 mW/cm^2), 405 nm
# Procedure: as §4
# P. aeruginosa [5] = assay: MIC of menadione by broth microdilution, with or without aBL; type: cell-based, Pseudomonas aeruginosa PA01
# Procedure: The MICs of menadione in different bacterial strains were determined by a standard broth microdilution assay according to the Clinical and Laboratory Standards Institute. Briefly, menadione was prepared at 100 mg/mL in Tween 80/DMSO (1:1) as a stock solution. The stock solution was diluted to 2048 μg/mL in BHI and then serial dilutions were performed to 1024-0.015 μg/mL in a 96-well plate. Then, a 10 μL stationary growth-phase culture of 10^8 CFU/mL bacteria in BHI broth was added to the 96-well plate containing the serial dilutions of menadione. The medium containing a similar amount of Tween 80/DMSO (1:1) served as a control. The microplates were incubated at 37° C. for 24 hours and the lowest concentration of the compound capable of completely inhibiting bacterial growth was referred to as the MIC.
# However, we investigated the effects of aBL (50 mW/cm^2) in potentiating the antibacterial activities of menadione in the three strains of bacteria. […] The highest fluence that we investigated was 125 J/cm^2, when we irradiated the bacteria for 42 minutes.
# NLRP3 inflammasome = NLRP3 inflammasome (Homo sapiens, UniProt Q96P20); settings: cited from earlier work
# Chain of NLRP3 inflammasome (Q96P20 whole entry): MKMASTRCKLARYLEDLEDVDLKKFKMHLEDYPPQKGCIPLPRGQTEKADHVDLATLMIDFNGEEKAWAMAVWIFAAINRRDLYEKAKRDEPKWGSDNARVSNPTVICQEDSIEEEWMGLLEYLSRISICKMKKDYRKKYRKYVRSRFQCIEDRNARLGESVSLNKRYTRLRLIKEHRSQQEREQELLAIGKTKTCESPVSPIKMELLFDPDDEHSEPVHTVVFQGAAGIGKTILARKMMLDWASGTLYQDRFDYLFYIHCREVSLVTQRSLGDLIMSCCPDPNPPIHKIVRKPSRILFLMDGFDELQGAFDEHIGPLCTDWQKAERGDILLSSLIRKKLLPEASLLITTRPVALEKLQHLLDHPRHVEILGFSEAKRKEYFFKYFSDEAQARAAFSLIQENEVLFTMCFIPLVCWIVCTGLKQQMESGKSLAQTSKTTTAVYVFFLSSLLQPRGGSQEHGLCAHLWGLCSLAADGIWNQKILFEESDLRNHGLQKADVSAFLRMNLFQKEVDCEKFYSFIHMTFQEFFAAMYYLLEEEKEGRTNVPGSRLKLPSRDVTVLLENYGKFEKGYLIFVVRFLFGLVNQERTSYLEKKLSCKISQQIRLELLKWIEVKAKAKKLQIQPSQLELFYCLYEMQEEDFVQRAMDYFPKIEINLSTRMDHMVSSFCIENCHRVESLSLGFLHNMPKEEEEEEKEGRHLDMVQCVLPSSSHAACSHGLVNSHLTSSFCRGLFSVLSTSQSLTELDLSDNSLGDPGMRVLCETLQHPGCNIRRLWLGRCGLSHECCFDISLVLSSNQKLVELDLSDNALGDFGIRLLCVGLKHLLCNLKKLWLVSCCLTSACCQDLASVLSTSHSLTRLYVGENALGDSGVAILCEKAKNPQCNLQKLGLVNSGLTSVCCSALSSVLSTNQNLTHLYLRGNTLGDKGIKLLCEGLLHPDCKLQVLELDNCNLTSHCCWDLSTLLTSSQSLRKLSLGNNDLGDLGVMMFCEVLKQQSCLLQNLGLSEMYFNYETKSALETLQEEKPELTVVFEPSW
# [6] = system: E. coli biofilms in ex-vivo explants; assay: Photoinactivation of biofilms in ex vivo porcine partial thickness wounds by menadione + aBL; type: cell-based, Escherichia coli
# Procedure: as §2, §3
structure (smiles),measurement,setting,value
"CC1=CC(=O)c2ccccc2C1=O [menadione, 2-methyl-1,4-naphthoquinone]",solubility in aqueous solution,[1]; PBS with 1% DMSO/Tween80 vs 1% DMSO,best solubility
same,solubility in water,[1]; water,not soluble in water
same,biofilm reduction by menadione and blue light,[2]; 50 μg/mL menadione + blue light,5.27 log10 CFU/mL
same,biofilm reduction by menadione in the absence of aBL,[2]; no aBL,no effect of biofilm reduction
same,eradication by aBL combined with menadione,E. coli,6 log10
same,maximum wavelength of absorption,"[3]; 400 μM in PBS with 1% DMSO or 1% DMSO/Tween80, both conditions",340 nm
same,"ε, molar absorptivity coefficient, λ = 340 nm",[3]; 1% DMSO in PBS,2458 L/mol/cm
same,"ε, molar absorptivity coefficient, λ = 380 nm",[3]; 1% DMSO in PBS,572.1 L/mol/cm
same,"ε, molar absorptivity coefficient, λ = 405 nm",[3]; 1% DMSO in PBS,128.82 L/mol/cm
same,"ε, molar absorptivity coefficient, λ = 340 nm",[3]; 1% DMSO/Tween in PBS,2064 L/mol/cm
same,"ε, molar absorptivity coefficient, λ = 380 nm",[3]; 1% DMSO/Tween in PBS,410.31 L/mol/cm
same,"ε, molar absorptivity coefficient, λ = 405 nm",[3]; 1% DMSO/Tween in PBS,113.85 L/mol/cm
same,eradication by aBL combined with menadione,P. aeruginosa [4],4.54 log10 CFU/mL
same,MIC,"P. aeruginosa [5]; Pseudomonas aeruginosa, light or radiation study, 5 min, aBL 15.62 J/cm^2 (5 mins.), 50 mW/cm^2, read-out: MIC",64 µg/mL
same,MIC,"P. aeruginosa [5]; Pseudomonas aeruginosa, light or radiation study, 0.175 h, aBL 31.25 J/cm^2 (10.5 mins.), 50 mW/cm^2, read-out: MIC",8 µg/mL
same,MIC,"P. aeruginosa [5]; Pseudomonas aeruginosa, light or radiation study, 0 J/cm^2 (Dark), read-out: MIC",1020 µg/mL
same,MIC,"P. aeruginosa [5]; aBL 62.5 J/cm^2 (21 mins.), 50 mW/cm^2",complete eradication
same,MIC,"P. aeruginosa [5]; aBL 125 J/cm^2 (42 mins.), 50 mW/cm^2",completely eradicated
same,inhibition of NLRP3 inflammasome,NLRP3 inflammasome,"selective, potent inhibitor"
same,response of biofilms to aBL and menadione,[6],did not respond
